Test results taken from patent US11987569B2, “Substituted imidazoquinolines as agonists of TLR7” (BIONTECH SE, priority 2017, dated 2024).

tested on: superficial basal cell carcinomas; assay: not given; conditions: marketed as 5% cream (Aldara); cited from earlier work

For `CC(C)Cn1cnc2c(N)nc3ccccc3c21` [Imiquimod, imiquimod], the “5-year clearance of superficial basal cell carcinomas” value is listed as “approx. 80%”.

tested on: human PBMCs; assay: IFN-α induction assay: IFN-α induction by TLR agonists in human PBMCs (Luminex); type: cell-based; conditions: 24 h incubation, comparative compounds, Table 2
Protocol: IFN-α Induction Assay—IFN-α Induction by TLR Agonists in Human PBMCs
Materials and Devices: Bio Plex 200 Luminex device, and BioPlex Manager software; MultiScreen Filter Plates (Millipore, MABVN1250); low binding reaction vials 1.5 ml (Sarstedt, 72.706.600); Activation Buffer: 0.1M Na-dihydrogen phosphate, 0.1M Di-Na hydrogen phosphate pH 6.2; Sulfo-NHS (N-hydroxysulfosuccinimide) solution: 50 mg/ml in water (freshly prepared); EDC solution: 50 mg/ml in water (freshly prepared); Coupling Buffer: PBS; Washing Buffer: PBS+0.05% Tween20; Blocking Buffer: PBS+10 mg/ml BSA+0.05% sodium azide; Assay Buffer: PBS+10 mg/ml BSA;
In each well of a 96-well U-bottom plate 200,000 PBMCs were pre-incubated in medium (RPMI1640−Gibco #61870-044÷10% FBS+1% L-glutamine) for 5 hours at 37° C. and 5% CO2 before the compounds of the present invention or controls were added, respectively. Upon addition of compounds of the present invention or controls, the cells are incubated for another 24 h at 37° C. and 5% Co2.
Luminex assay, Step 1: Coupling of antibody to beads: • transfer a suspension (beads are stored in buffer as provided by manufacturer) of about 5 million MicroPlex Microspheres (=beads) into a low binding reaction vial • centrifuge bead suspension for 1 min at 10,000 g, discard supernatant and resuspend pellet in 160 μl Activation Buffer, repeat once • add 20 μl Sulfo-NHS solution and 20 μl EDC solution, vortex • incubate for 20 min in the absence of light • centrifuge bead suspension for 1 min at 10,000 g, discard supernatant and resuspend pellet in 500 μl Coupling Buffer, repeat once • add capture antibody (CaptureAK eBioscience #BMS160, 5 μg per 1 Mio beads) • incubate 2 h at RT in the absence of light while swaying • centrifuge bead suspension for 1 min at 10,000 g, discard supernatant and resuspend pellet in 500 μl Washing Buffer, repeat once • centrifuge bead suspension for 1 min at 10,000 g, discard supernatant and resuspend pellet in 100 μl Blocking Buffer
Luminex Assay, Step 2: Measurement • add 100 μl Assay Buffer into each filter plate well (seal any unused wells with adhesive tape), then remove buffer • add about 2,000 beads per well per analyte (per analyte, a different bead type with distinct fluorescence color is used), suspended in 50 μL of Assay Buffer • remove buffer and wash twice with 100 μl Washing Buffer per well • per well, add 50 μl sample solution from the (pre-)incubation step (cell supernatant), or Standard (IFN-α standard eBioscience #BMS216MST—concentration gradient, highest standard concentration 2500 pg/ml) or Assay Buffer (as blanks) • shake plate • incubate plate for 2 h at RT in the absence of light, while swaying the plate • wash three times with 100 μl Washing Buffer per well • add 25 μl antibody detection mix (DetectionAK eBioscience #BMS1016BT diluted 1:1000) in Assay Buffer per well, then vortex plate • incubate plate for 1 h at RT in the absence of light, while swaying the plate • wash three times with 100 μl Washing Buffer per well • add 50 μl Streptavidin/PE (diluted 1:200 in Assay Buffer) per well, then vortex plate • incubate plate for 10 min at RT in the absence of light, while swaying the plate • wash three times with 100 μl Washing Buffer per well • add 100 μl Assay Buffer per well, then vortex plate • start Luminex measurement according to manufacturer's instructions, measuring at least 50 beads per well per analyte
The compounds were tested at 8 different concentrations (1 μM, 0.3 μM, 0.1 μM, 0.03 μM, 0.01 μM 0.003 μM, 0.001 μM, 0.0003 μM) using a half-logarithmic dilution. The release of Interferon-alpha (IFN-α) presents a bell-shaped distribution within the dilution window. The minimum effective concentration (MEC) is the lowest concentration required to induce the desired IFN-α release. It represents the outset of the bell-shaped distribution and is given in nM. […]

In the case of `CCNCc1nc2c(N)nc3ccccc3c2n1CCCCN(C(C)=O)C1CCS(=O)(=O)C1` (stereo not drawn) [10′, reference compound], the “Minimum effective concentration IFN-α release” value is reported as “inactive”.
For `CCNCc1nc2c(N)nc3ccccc3c2n1CCCCN(C(=O)OC)C1CCS(=O)(=O)C1` (stereo not drawn) [11′, reference compound], the “Minimum effective concentration IFN-α release” value was “inactive”.

same assay, conditions: PBMC, 24 h incubation, comparative compounds, Table 2, read-out: Minimum effective concentration IFN-α release

`CCc1nc2c(N)nc3ccccc3c2n1CCCCN(C(C)=O)C1CCS(=O)(=O)C1` (stereo not drawn) [7′, N-[4-(4-amino-2-ethyl-1H-imidazo[4,5-c]quinolin-1-yl)butyl]-N-(1,1-dioxidotetrahydro-3-thienyl)acetamide, reference compound] and `CCc1nc2c(N)nc3ccccc3c2n1CCCCN(C(N)=O)C1CCS(=O)(=O)C1` (stereo not drawn) [9′, reference compound] are the same in minimal effective concentration: 0.3 µM for the first, 0.3 µM for the second.

Going from `CCc1nc2c(N)nc3ccccc3c2n1CCCCN(C(=O)OC)C1CCS(=O)(=O)C1` (stereo not drawn) [8′, reference compound] to `COCCc1nc2c(N)nc3ccccc3c2n1CCCCN(C(=O)OC)C1CCS(=O)(=O)C1` (stereo not drawn) [14′, reference compound], the minimal effective concentration falls from 0.1 µM to 0.01 µM (10-fold).

First: CCNCc1nc2c(N)nc3ccccc3c2n1CCCCN(C(N)=O)C1CCS(=O)(=O)C1 (stereo not drawn) [12′, reference compound]
Second: COCCc1nc2c(N)nc3ccccc3c2n1CCCCN(C(N)=O)C1CCS(=O)(=O)C1 (stereo not drawn) [15′, reference compound]
The minimal effective concentration of the first is 100-fold higher: 10 µM for the first, 0.1 µM for the second.

With `COCCc1nc2c(N)nc3ccccc3c2n1CCCCN(C(C)=O)C1CCS(=O)(=O)C1` (stereo not drawn) [13′, reference compound] the minimal effective concentration was 0.03 µM.

same assay, conditions: PBMC, 24 h incubation, lowest concentration inducing the desired IFN-α release, Table 1, read-out: Minimum effective concentration IFN-α release

`CCc1nc2c(N)nc3ccccc3c2n1CCCCN(C(C)=O)C1CS(=O)(=O)C1` [Example 7, N-(4-(4-Amino-2-ethyl-1H-imidazo[4,5-c]quinolin-1-yl)butyl)-N-(1,1-dioxidothietan-3-yl)acetamide] and `CCc1nc2c(N)nc3ccccc3c2n1CCCCN(C(N)=O)C1CS(=O)(=O)C1` [Example 9, 1-(4-(4-Amino-2-ethyl-1H-imidazo[4,5-c]quinolin-1-yl)butyl)-1-(1,1-dioxidothietan-3-yl)urea] are the same in minimal effective concentration: 0.1 µM for the first, 0.1 µM for the second.

Compared with `CCc1nc2c(N)nc3ccccc3c2n1CCCCN(C(=O)OC)C1CS(=O)(=O)C1` [Example 8, Methyl (4-(4-amino-2-ethyl-1H-imidazo[4,5-c]quinolin-1-yl)butyl)(1,1-dioxidothietan-3-yl)carbamate], `CCNCc1nc2c(N)nc3ccccc3c2n1CCCCN(C(=O)OC)C1CS(=O)(=O)C1` [Example 11, Methyl (4-(4-amino-2-((ethylamino)methyl)-1H-imidazo[4,5-c]quinolin-1-yl)butyl)(1,1-dioxidothietan-3-yl)carbamate] is 3.3-fold higher in minimal effective concentration: 0.03 µM for the first, 0.1 µM for the second.

Compared with `CCNCc1nc2c(N)nc3ccccc3c2n1CCCCN(C(C)=O)C1CS(=O)(=O)C1` [Example 10, N-(4-(4-Amino-2-((ethylamino)methyl)-1H-imidazo[4,5-c]quinolin-1-yl)butyl)-N-(1,1-dioxidothietan-3-yl)acetamide], `CCNCc1nc2c(N)nc3ccccc3c2n1CCCCN(C(N)=O)C1CS(=O)(=O)C1` [Example 12, 1-(4-(4-Amino-2-((ethylamino)methyl)-1H-imidazo[4,5-c]quinolin-1-yl)butyl)-1-(1,1-dioxidothietan-3-yl)urea] is 3-fold higher in minimal effective concentration: 1 µM for the first, 3 µM for the second.

First: COCCc1nc2c(N)nc3ccccc3c2n1CCCCN(C(C)=O)C1CS(=O)(=O)C1 [Example 13, N-(4-(4-Amino-2-(2-methoxyethyl)-1H-imidazo[4,5-c]quinolin-1-yl)butyl)-N-(1,1-dioxidothietan-3-yl)acetamide]
Second: COCCc1nc2c(N)nc3ccccc3c2n1CCCCN(C(N)=O)C1CS(=O)(=O)C1 [Example 15, 1-(4-(4-Amino-2-(2-methoxyethyl)-1H-imidazo[4,5-c]quinolin-1-yl)butyl)-1-(1,1-dioxidothietan-3-yl)urea]
The minimal effective concentration of the first is 2-fold lower: 0.01 µM for the first, 0.02 µM for the second.

`COCCc1nc2c(N)nc3ccccc3c2n1CCCCN(C(=O)OC)C1CS(=O)(=O)C1` [Example 14, Methyl (4-(4-amino-2-(2-methoxyethyl)-1H-imidazo[4,5-c]quinolin-1-yl)butyl)(1,1-dioxidothietan-3-yl)carbamate] gave a minimal effective concentration of 0.001 µM.

tested on: IFN-α secretion; assay: In vivo profiling: plasma IFN-α after single intravenous infusion in cynomolgus monkeys (ELISA); conditions: cynomolgus monkey, single dose 0.3 mg/kg (smallest dose tested), 30 min i.v. infusion
Protocol: In the following studies, a compound according to the invention was examined in an in vivo cynomolgus monkey model. It is evaluated whether and at which applied dose the compounds cause secretion of IFN-α.
In particular, a defined single dose of test compound was applied intravenously to cynomolgus monkeys by a thirty minute infusion. At several time points after initiation of the intravenous compound application, blood samples (0.5 mL for approximately 0.25 mL plasma) were collected from the vena cephalica antebrachii or vena saphena into K3EDTA tubes from the animals. Blood samples were stored on crushed ice prior to centrifugation. Plasma was obtained by centrifugation at 4° C. and approximately 1800 g for 10 minutes and was aliquoted into labeled micro tubes and stored frozen at −70° C. or below. Plasma samples were thawed, diluted and used for determination of IFN-α levels using an IFN-α Elisa Kit (e.g. VeriKine™ Cynomolgus/Rhesus IFN-α ELISA Kit) according to the manufacturer's instructions.

In the case of `CCc1nc2c(N)nc3ccccc3c2n1CCCCN(C(C)=O)C1CS(=O)(=O)C1` [Example 7, N-(4-(4-Amino-2-ethyl-1H-imidazo[4,5-c]quinolin-1-yl)butyl)-N-(1,1-dioxidothietan-3-yl)acetamide], the “peak plasma IFN-α concentration” value is reported as “about 5000 pg/ml”.

same assay, conditions: cynomolgus monkey, single dose 10 mg/kg, 30 min i.v. infusion

With `CCc1nc2c(N)nc3ccccc3c2n1CCCCN(C(C)=O)C1CS(=O)(=O)C1` [Example 7, N-(4-(4-Amino-2-ethyl-1H-imidazo[4,5-c]quinolin-1-yl)butyl)-N-(1,1-dioxidothietan-3-yl)acetamide] the “peak plasma IFN-α concentration” value was “about 30,000 pg/ml”.
